These results are taken from ChEMBL document CHEMBL4673241, “Cannabitwinol, a Dimeric Phytocannabinoid from Hemp, Cannabis sativa L., Is a Selective Thermo-TRP Modulator” (J Nat Prod, 2020).

Common to all, as to format: cell-based
Test [1] concerns the target T1, Transient receptor potential cation channel subfamily V member 1 (Homo sapiens, UniProt Q8NER1). As to the kind of experiment: Agonist activity at human TRPV1 stably transfected in HEK293 cells assessed as increase in calcium influx by Fluo-4-AM dye based spectrofluorimetric method relative to ionomycin.
Test [2] deals with T2, Transient receptor potential cation channel subfamily V member 2 (Rattus norvegicus) (UniProt Q9WUD2).
T2 sequence (whole entry): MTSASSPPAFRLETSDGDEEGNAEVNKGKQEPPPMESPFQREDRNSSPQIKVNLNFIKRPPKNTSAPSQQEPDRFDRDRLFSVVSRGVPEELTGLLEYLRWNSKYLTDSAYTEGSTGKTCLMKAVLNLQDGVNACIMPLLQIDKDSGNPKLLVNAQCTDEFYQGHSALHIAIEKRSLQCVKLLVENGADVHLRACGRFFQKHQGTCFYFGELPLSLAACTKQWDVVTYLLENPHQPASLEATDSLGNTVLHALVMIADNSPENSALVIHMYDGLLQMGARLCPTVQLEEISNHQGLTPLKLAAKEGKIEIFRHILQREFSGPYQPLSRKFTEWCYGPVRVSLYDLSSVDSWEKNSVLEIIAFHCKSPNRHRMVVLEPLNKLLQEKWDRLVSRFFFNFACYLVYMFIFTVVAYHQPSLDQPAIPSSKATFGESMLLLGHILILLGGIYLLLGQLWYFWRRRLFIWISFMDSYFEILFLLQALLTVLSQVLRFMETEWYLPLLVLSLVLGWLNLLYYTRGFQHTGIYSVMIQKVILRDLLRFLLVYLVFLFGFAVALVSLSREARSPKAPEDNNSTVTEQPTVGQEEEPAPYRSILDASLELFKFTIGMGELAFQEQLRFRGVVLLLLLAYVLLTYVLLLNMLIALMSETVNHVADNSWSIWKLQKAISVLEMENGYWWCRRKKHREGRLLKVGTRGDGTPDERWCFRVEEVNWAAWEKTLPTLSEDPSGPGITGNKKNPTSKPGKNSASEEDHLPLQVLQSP
Nature of the test: Agonist activity at rat TRPV2 stably transfected in HEK293 cells assessed as increase in calcium influx by Fluo-4-AM dye based spectrofluorimetric method relative to ionomycin.

For test [3], the target named is T3, Transient receptor potential cation channel subfamily V member 4 (Rattus norvegicus, UniProt Q9ERZ8). As to the kind of experiment: Antagonist activity at rat TRPV4 expressed in HEK293 cells assessed as inhibition of GSK1016790A-induced Ca2+ response preincubated for 5 mins followed by GSK1016790A addition by Fluo-4AM dye based fluorescence assay.
Test [4] addresses T3, Transient receptor potential cation channel subfamily V member 4. As to the kind of experiment: Agonist activity at rat TRPV4 stably transfected in HEK293 cells assessed as increase in calcium influx in presence of ionomycin by Fluo-4-AM dye based spectrofluorimetric method.
Test [5] deals with T4, Heat sensitive channel TRPV3 (Rattus norvegicus) (UniProt Q4QYD9).
T4 sequence (whole entry): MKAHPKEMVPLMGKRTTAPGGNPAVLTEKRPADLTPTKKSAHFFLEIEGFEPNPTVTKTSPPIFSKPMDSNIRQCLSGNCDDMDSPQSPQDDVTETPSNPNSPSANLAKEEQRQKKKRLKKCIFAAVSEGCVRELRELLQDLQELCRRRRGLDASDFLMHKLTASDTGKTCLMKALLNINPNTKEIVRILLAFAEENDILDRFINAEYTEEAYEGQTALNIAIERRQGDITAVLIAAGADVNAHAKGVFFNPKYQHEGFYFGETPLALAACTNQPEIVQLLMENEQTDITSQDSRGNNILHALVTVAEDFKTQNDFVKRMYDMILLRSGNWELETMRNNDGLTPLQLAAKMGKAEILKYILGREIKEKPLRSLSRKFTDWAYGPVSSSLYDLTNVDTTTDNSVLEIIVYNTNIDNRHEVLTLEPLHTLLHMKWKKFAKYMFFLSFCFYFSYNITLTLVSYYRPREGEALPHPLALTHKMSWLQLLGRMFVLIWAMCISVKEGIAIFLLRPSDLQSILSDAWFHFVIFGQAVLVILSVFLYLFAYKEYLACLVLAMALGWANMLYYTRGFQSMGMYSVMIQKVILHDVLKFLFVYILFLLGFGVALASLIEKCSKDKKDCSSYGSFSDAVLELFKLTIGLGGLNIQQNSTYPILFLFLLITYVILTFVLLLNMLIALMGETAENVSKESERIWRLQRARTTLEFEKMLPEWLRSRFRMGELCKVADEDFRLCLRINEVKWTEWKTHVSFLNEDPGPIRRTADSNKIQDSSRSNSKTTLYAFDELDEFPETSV
As to the kind of experiment: Agonist activity at rat TRPV3 stably transfected in HEK293 cells assessed as increase in calcium influx by Fluo-4-AM dye based spectrofluorimetric method relative to ionomycin. The conditions noted are these: filed as agonist.

Test [6] concerns the target T5, Transient receptor potential cation channel subfamily V member 2 (Rattus norvegicus, UniProt Q9WUD2).
T5 sequence (Q9WUD2 whole entry): T2 sequence (whole entry)
Nature of the test: Antagonist activity at rat TRPV2 expressed in HEK293 cells assessed as inhibition of LPC-induced Ca2+ response preincubated for 5 mins followed by LPC addition by Fluo-4AM dye based fluorescence assay.

The target in test [7] is T6, Heat sensitive channel TRPV3 (Rattus norvegicus, UniProt Q4QYD9).
T6 sequence (Q4QYD9 whole entry): T4 sequence (whole entry)
As to the kind of experiment: Agonist activity at rat TRPV3 stably transfected in HEK293 cells assessed as increase in calcium influx in presence of ionomycin by Fluo-4-AM dye based spectrofluorimetric method.

Test [8] concerns the target T7, Transient receptor potential cation channel subfamily A member 1 (Rattus norvegicus, UniProt Q6RI86). Nature of the test: Agonist activity at rat TRPA1 stably transfected in HEK293 cells assessed as increase in calcium influx in presence of allylisothiocyanate by Fluo-4-AM dye based spectrofluorimetric method.
Test [9] addresses T1, Transient receptor potential cation channel subfamily V member 1. As to the kind of experiment: Agonist activity at human TRPV1 stably transfected in HEK293 cells assessed as increase in calcium influx in presence of ionomycin by Fluo-4-AM dye based spectrofluorimetric method.
The target in test [10] is T7, Transient receptor potential cation channel subfamily A member 1. As to the kind of experiment: Antagonist activity at rat TRPA1 expressed in HEK293 cells assessed as inhibition of allylisothiocyanate-induced Ca2+ response preincubated for 5 mins followed by allylisothiocyanate addition by Fluo-4AM dye based fluorescence assay.
Test [11] deals with T6, Heat sensitive channel TRPV3. As to the kind of experiment: Antagonist activity at rat TRPV3 expressed in HEK293 cells assessed as inhibition of thymol-induced Ca2+ response preincubated for 5 mins followed by thymol addition by Fluo-4AM dye based fluorescence assay.
In test [12] the target is Transient receptor potential cation channel subfamily M member 8 (Rattus norvegicus, UniProt Q8R455). As to the kind of experiment: Antagonist activity at rat TRPM8 expressed in HEK293 cells assessed as inhibition of icilin-induced Ca2+ response preincubated for 5 mins followed by icilin addition by Fluo-4AM dye based fluorescence assay.
The target of test [13] is T5, Transient receptor potential cation channel subfamily V member 2. As to the kind of experiment: Agonist activity at rat TRPV2 stably transfected in HEK293 cells assessed as increase in calcium influx in presence of ionomycin by Fluo-4-AM dye based spectrofluorimetric method.
Test [14] deals with Transient receptor potential cation channel subfamily A member 1 (Rattus norvegicus) (UniProt Q6RI86). Nature of the test: Agonist activity at rat TRPA1 stably transfected in HEK293 cells assessed as increase in calcium influx by Fluo-4-AM dye based spectrofluorimetric method relative to allylisothiocyanate. The conditions noted are these: filed as agonist.
Test [15] deals with T1, Transient receptor potential cation channel subfamily V member 1. As to the kind of experiment: Antagonist activity at human TRPV1 expressed in HEK293 cells assessed as inhibition of capsaicin-induced Ca2+ response preincubated for 5 mins followed by capsaicin addition by Fluo-4AM dye based fluorescence assay.
Test [16] addresses Transient receptor potential cation channel subfamily V member 4 (Rattus norvegicus) (UniProt Q9ERZ8). As to the kind of experiment: Agonist activity at rat TRPV4 stably transfected in HEK293 cells assessed as increase in calcium influx by Fluo-4-AM dye based spectrofluorimetric method relative to ionomycin.

T7 sequence (Q6RI86 whole entry): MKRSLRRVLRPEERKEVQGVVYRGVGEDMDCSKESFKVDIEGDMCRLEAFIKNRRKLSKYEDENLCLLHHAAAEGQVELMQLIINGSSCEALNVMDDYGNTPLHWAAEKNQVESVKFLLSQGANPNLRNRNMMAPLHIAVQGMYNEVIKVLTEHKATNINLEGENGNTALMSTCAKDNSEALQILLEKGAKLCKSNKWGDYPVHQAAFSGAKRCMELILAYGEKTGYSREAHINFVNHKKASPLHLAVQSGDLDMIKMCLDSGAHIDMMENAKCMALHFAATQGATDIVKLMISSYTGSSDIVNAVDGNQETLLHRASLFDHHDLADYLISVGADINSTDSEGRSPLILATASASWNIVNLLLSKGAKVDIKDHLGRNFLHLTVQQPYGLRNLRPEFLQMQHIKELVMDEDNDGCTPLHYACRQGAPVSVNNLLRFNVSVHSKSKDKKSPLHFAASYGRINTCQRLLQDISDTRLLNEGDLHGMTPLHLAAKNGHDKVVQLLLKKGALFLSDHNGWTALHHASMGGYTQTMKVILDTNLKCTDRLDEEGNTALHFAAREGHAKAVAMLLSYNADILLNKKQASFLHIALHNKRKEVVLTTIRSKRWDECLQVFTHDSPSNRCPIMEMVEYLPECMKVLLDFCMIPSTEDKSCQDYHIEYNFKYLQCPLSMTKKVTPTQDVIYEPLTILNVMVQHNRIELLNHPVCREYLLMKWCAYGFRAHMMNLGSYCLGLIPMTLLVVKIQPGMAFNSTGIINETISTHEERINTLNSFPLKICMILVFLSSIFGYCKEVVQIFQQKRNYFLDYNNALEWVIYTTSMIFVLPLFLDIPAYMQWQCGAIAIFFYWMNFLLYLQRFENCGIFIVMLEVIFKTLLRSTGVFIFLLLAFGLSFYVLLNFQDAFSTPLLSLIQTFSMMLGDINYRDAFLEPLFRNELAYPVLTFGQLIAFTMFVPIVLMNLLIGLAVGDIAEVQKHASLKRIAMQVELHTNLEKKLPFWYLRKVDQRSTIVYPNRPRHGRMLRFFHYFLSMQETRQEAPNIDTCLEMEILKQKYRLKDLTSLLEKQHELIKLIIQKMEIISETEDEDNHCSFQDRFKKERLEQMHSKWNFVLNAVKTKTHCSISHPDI
T1 sequence (Q8NER1 whole entry): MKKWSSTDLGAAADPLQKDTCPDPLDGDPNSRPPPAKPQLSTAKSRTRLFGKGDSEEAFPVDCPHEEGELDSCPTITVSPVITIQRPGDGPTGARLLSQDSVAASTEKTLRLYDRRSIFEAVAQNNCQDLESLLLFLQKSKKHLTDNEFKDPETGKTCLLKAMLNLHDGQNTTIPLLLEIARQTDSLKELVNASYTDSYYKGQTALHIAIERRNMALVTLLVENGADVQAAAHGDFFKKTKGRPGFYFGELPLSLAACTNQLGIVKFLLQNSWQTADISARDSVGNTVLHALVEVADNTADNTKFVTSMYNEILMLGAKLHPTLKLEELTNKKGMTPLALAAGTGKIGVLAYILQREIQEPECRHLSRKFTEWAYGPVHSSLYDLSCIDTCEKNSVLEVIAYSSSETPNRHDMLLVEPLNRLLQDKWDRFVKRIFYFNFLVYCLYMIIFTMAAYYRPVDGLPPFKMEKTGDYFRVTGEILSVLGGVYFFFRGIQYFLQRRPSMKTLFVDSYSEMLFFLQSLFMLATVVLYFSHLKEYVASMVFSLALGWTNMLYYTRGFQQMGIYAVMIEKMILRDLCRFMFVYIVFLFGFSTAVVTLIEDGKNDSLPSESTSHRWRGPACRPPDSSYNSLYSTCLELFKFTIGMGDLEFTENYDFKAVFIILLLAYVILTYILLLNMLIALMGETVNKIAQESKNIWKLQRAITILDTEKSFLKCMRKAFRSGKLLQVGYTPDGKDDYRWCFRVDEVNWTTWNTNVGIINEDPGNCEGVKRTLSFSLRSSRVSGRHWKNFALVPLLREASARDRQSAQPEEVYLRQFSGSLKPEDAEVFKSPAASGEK
T3 sequence (Q9ERZ8 whole entry): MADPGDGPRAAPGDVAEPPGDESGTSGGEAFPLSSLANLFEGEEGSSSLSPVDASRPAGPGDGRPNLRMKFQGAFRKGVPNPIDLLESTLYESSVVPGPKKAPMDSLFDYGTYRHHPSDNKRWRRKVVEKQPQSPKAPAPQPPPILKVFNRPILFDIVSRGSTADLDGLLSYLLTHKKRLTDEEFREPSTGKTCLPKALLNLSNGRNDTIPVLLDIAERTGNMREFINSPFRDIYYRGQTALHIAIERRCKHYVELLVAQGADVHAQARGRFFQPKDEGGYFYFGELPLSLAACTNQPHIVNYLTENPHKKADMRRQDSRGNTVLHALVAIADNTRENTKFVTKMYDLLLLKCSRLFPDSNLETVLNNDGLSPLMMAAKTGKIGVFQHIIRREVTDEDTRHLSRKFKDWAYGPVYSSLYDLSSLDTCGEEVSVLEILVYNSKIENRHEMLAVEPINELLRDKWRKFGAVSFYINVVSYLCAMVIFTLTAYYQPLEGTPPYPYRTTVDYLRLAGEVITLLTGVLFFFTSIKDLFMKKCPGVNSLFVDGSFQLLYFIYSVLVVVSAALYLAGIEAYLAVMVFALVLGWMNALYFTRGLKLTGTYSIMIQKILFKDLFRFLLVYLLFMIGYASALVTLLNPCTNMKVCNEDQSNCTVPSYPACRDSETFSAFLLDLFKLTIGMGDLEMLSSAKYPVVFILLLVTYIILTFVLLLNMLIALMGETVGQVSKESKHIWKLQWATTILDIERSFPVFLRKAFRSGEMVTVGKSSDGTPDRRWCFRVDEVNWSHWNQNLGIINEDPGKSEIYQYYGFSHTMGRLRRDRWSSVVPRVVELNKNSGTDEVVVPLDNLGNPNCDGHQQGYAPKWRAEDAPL
Transient receptor potential cation channel subfamily M member 8, sequence (Q8R455 whole entry): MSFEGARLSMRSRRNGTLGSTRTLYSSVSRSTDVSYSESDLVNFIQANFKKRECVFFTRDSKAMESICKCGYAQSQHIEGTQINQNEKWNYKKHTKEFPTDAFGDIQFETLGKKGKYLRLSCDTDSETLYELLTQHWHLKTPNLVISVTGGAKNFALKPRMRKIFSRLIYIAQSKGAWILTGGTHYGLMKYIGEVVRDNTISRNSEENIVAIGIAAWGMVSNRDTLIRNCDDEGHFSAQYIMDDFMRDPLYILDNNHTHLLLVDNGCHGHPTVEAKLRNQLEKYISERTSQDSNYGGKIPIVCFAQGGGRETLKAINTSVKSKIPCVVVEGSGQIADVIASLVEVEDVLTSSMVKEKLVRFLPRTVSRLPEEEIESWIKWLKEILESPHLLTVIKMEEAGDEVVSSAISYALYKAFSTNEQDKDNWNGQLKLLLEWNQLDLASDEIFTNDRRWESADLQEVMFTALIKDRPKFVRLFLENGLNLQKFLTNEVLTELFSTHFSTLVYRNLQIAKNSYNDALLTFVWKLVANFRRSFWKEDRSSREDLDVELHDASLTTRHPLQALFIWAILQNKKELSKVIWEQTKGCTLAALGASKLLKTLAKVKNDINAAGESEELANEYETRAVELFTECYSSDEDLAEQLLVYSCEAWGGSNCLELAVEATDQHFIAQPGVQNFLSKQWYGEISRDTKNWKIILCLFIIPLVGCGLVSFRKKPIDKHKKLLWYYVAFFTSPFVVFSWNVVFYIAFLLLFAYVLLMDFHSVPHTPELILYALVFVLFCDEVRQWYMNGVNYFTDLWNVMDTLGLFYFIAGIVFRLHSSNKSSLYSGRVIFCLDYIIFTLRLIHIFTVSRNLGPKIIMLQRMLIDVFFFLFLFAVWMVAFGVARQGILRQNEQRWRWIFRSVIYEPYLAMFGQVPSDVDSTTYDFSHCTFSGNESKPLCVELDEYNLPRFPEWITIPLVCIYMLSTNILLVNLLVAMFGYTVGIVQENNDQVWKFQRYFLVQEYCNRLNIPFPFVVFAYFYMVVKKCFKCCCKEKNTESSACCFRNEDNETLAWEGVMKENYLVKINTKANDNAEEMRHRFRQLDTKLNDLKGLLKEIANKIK
Transient receptor potential cation channel subfamily A member 1 (Rattus norvegicus), sequence (Q6RI86 whole entry): as the sequence (Q6RI86 whole entry) above
Transient receptor potential cation channel subfamily V member 4 (Rattus norvegicus), sequence (Q9ERZ8 whole entry): as the sequence (Q9ERZ8 whole entry) above

What is called IC50 is the point on the concentration scale where inhibition reaches its midpoint. Usually EC50 stands for the midpoint of the concentration-response curve. Consider `C=C(C)[C@@H]1CCC(C)=C[C@H]1c1c(O)cc(CCCCC)c(Cc2c(CCCCC)cc(O)c([C@@H]3C=C(C)CC[C@H]3C(=C)C)c2O)c1O`, for which the Efficacy in test [1] was 12.3%; in test [2] it was less than 10%; in test [5], 66.5%; in [14], 96.7%; in test [16], 10.6%. Moreover, the IC50 in test [3] is greater than 20 µM; in test [6] it was greater than 20 µM; in test [10], 4.9 µM; in [11] it was 11.8 µM; in test [12] it was 3.9 µM; in test [15], greater than 20 µM. Also, the EC50 in [4] was 6.2 µM; in [7] it was 4.6 µM; in test [8] it was 3 µM; in [9] it was 4.5 µM; in test [13] (hek293) it was “Not Active”.

Take `C=C(C)[C@@H]1CCC(C)=C[C@H]1c1c(O)cc(CCCCC)cc1O` [CANNABIDIOL]: the Efficacy in test [1] (filed as agonist) turned out to be 78.4%; in test [2] (filed as agonist), 67.5%; in [5] it was 53.6%; in [14], 109%; in test [16] it was 15.2%. Moreover, the IC50 in test [3] amounted to 5.9 µM; in test [6], 1.1 µM; in [10], 0.45 µM; in test [11], 0.75 µM; in test [12] it was 2.8 µM; in [15], 3.7 µM. Further, the EC50 in test [4] turned out to be 0.9 µM; in test [7], 0.51 µM; in test [8] it was 0.48 µM; in test [9] it was 4.1 µM; in [13] (read-out: EC50) it was 1.2 µM.
